{"source": "paper PMC7437907", "about": "“Impact of pH and protein hydrophobicity on norovirus inactivation by heat-denatured lysozyme” (PLoS ONE, 2020)", "key": {"MNV-1 [1]": {"system": "MNV-1", "assay": "MNV-1 inactivation by heat-denatured Lzm peptides (plaque assay)", "format": "cell-based, murine norovirus strain 1", "conditions": "peptides at same molar concentration as 1.0% (w/v) lysozyme, or DL 1% pH 3.7; heat-denatured 100°C 40 min; MNV-1 approx. 6 log PFU/mL, 60 min, room temperature; mean, n = 3", "protocol": "The infectivity of MNV-1 was determined by a plaque assay, as described previously. Briefly, RAW264.7 cells were seeded into 6-well plates (Falcon BD, Franklin Lakes, NJ) at approximately 6 log cells/mL in DMEM containing 5% (v/v) FBS, penicillin (100 U/mL), and streptomycin (100 μg/mL). The plates were incubated at 37°C under 5% CO2 for 18 h. Then, 500 μL/well of samples prepared as described below sections were added to the plates, and the plates were shaken at 20 r/min for 1 h. The inoculated sample was removed, and the wells overlaid with 2 mL of 1.5% (v/v) SeaPlaque agarose (Lonza Japan, Tokyo, Japan) in DMEM containing 5% (v/v) FBS. The plates were incubated at 37°C under 5% CO2 for 48 h. Then, 2 mL of 0.03% (v/v) neutral red solution (Sigma-Aldrich Japan, Tokyo, Japan) was added, and the plates incubated at 37°C under 5% CO2 for 1 h. Thus, visualized plaques were then counted. The synthesized peptides were dissolved in distilled water to the same molarity as 2.0% (w/v) lysozyme, 14,307 of molecular weight, and heated in an oil bath at 100°C for 40 min, then immediately cooled in ice. Next, 120 μL of MNV-1 solution at 6 log pfu/mL was mixed with 120 μL of the prepared heat-denatured peptides, and allowed to stand for 60 min at room temperature. The samples were immediately diluted 10-fold in DMEM and analyzed by the plaque assay, as described above."}, "MNV-1 [2]": {"system": "MNV-1", "assay": "Plaque assay for MNV-1 infectivity after exposure to DL preparations at different pH", "format": "cell-based, murine norovirus strain 1", "procedure": "The infectivity of MNV-1 was determined by a plaque assay, as described previously [9]. Briefly, RAW264.7 cells were seeded into 6-well plates (Falcon BD, Franklin Lakes, NJ) at approximately 6 log cells/mL in DMEM containing 5% (v/v) FBS, penicillin (100 U/mL), and streptomycin (100 μg/mL). The plates were incubated at 37°C under 5% CO2 for 18 h. Then, 500 μL/well of samples prepared as described below sections were added to the plates, and the plates were shaken at 20 r/min for 1 h. The inoculated sample was removed, and the wells overlaid with 2 mL of 1.5% (v/v) SeaPlaque agarose (Lonza Japan, Tokyo, Japan) in DMEM containing 5% (v/v) FBS. The plates were incubated at 37°C under 5% CO2 for 48 h. Then, 2 mL of 0.03% (v/v) neutral red solution (Sigma-Aldrich Japan, Tokyo, Japan) was added, and the plates incubated at 37°C under 5% CO2 for 1 h. Thus, visualized plaques were then counted. […] The samples were then diluted 10-fold in DMEM to stop the virus inactivation reaction and analyzed by the plaque assay, as described above."}, "interferon β (Ifnb) gene": {"system": "interferon β (Ifnb) gene", "assay": "Gene expression (qPCR) of RAW264.7 macrophages infected with DL-treated MNV-1: Ifnb", "format": "cell-based", "conditions": "MNV-1 exposed to 1.0% DL (pH 6.5 before denaturation) for 60 min, MOI 0.01, 24 h, fold-change vs mock by ΔΔCt, n = 3", "protocol": "(§1) RAW264.7 cell monolayers (1 × 10^7 cells/mL) in T25 cell flasks (Thermo Fisher Scientific K. K., Tokyo, Japan) were inoculated as described below.\n(§2) Live MNV-1 (6 log PFU/mL) was used at a multiplicity of infection (MOI) of 0.01. For some experiments, MNV-1 (6 log PFU/mL) was inactivated by heating at 100°C for 40 min in an oil bath. The heat-treated MNV-1 was then used at MOI of 0.01 (infectivity as determined before heat inactivation). For another set of experiments, 100 μL of MNV-1 (6 log PFU/mL) was mixed with 100 μL of 2.0% of DL (adjusted at pH 6.5 before thermally-denaturation) and allowed to stand at room temperature for 60 min. The mixture was used at MOI of 0.01 (infectivity as before DL treatment).\n(§3) The inoculated RAW264.7 cell monolayers were incubated at 37°C under 5% CO2 for 24 h. The cells were then detached by using a cell scraper (Thermo Fisher Scientific) and centrifuged at 300 × g for 5 min. […]\n(§4) Total RNA was extracted from inoculated RAW264.7 macrophages using the RNeasy Mini kit (Qiagen, Hilden, Germany), according to the manufacturer’s instructions. […] The resulting cDNA was amplified by quantitative polymerase chain reaction (qPCR) to quantitate the expression levels of interferon β (Ifnb) and interleukin 6 (Il6) genes. […] Fold-changes in mRNA abundance were calculated by the ΔΔCt method, as previously described."}, "interleukin 6 (Il6) gene": {"system": "interleukin 6 (Il6) gene", "assay": "Gene expression (qPCR) of RAW264.7 macrophages infected with DL-treated MNV-1: Il6", "format": "cell-based", "conditions": "MNV-1 exposed to 1.0% DL (pH 6.5 before denaturation) for 60 min, MOI 0.01, 24 h, fold-change vs mock by ΔΔCt, n = 3", "protocol": "as §1, §2, §3, §4"}, "[3]": {"assay": "Surface hydrophobicity, protein stability and aggregation assay kit (PSA200K)", "format": "physicochemical", "conditions": "1% lysozyme solution, pH 4.5–8.5, DL denatured 100°C 40 min, 1X PSA solution, λEx 550 nm, λEm 610 nm, compared with native lysozyme at same pH, p < 0.01, n = 3", "protocol": "Hydrophobicity, thiol group content, and circular dichroism (CD) spectra of the different DL preparations were analyzed. Hydrophobicity was measured by using protein stability and aggregation assay kit (PSA200K, Profoldin, Hudson, MA), according to the manufacturer’s instructions. Sample excitation was measured at 550 nm and emission at 610 nm, using a spectrofluorometer (SH-9000, Corona Electric Co., Ltd., Ibaraki, Japan). Thiol group content was determined in a reaction mixture containing 192 μL of deionized water, 20 mM Tris-HCl at pH 8.0, 2.8 μL of Ellman’s reagent [prepared by dissolving 4 mg of 5,5′-dithiobis-(2-nitrobenzoic acid) powder in 1 mL of Tris buffer at pH 7.0], and 200 μL of 1.0% (w/v) DL. After incubation at room temperature for 1 h in the dark, sample absorbance was measured at 412 nm by using a microplate reader (SH-1000 Lab, Corona Electric Co., Ltd.). CD spectra were acquired using a circular dichroism dispersometer (J-720, JASCO Corporation, Tokyo, Japan). For the analysis, DL preparation was diluted to 100 μg/mL in distilled water, and the spectra acquired in the range of 190 to 250 nm, with a scanning speed of 100 nm/min, a bandwidth of 1 nm, and integration frequency of 10."}, "MNV-1 [4]": {"system": "MNV-1", "conditions": "after exposure to DL for 1 h; cited from earlier work", "from_the_text": "We have reported that thermally denatured lysozyme (DL) inactivates norovirus. […] Furthermore, DL inactivates norovirus in several foods and is also effective against the hepatitis A virus. However, the conditions for optimal DL norovirus-inactivating effects and the underlying mechanism remain unclear."}, "[5]": {"conditions": "stated in discussion, no reference given; cited from earlier work", "from_the_text": "Lysozyme is a positively charged protein with an isoelectric point of 11. We anticipated that in a high-pH solution (pH 6.5–8.5), the intermolecular forces would become stronger, thus, denaturing the protein structure upon heating. In other words, adjusting the pH to a high value would trigger the loosening of the protein structure during thermal denaturation. […] Of ..."}}, "data": [{"substance": "ITASVNCAKKIVSDGNGMNAWVAWRNRCKGTDVQAWIR [Lzm 88–125, synthetic peptide containing lysozyme residues 88–125]", "values": [{"measurement": "Decrease in MNV-1 infectivity (log reduction)", "setting": "MNV-1 [1]", "result": 0.2, "unit": "log PFU/mL"}]}, {"substance": "RCELAAAMKREGLDNYRGYSLGNWVCAAEFESNFN [Lzm R1, variant of Lzm 5–39, basic amino acids replaced with acidic amino acids]", "values": [{"measurement": "Decrease in MNV-1 infectivity (log reduction)", "setting": "MNV-1 [1]", "result": "lost"}]}, {"substance": "RCNLAAAMKRHGLNNYRGYSLGNWVCAAKFNSNFN [Lzm R3, variant of Lzm 5–39, all acidic amino acids replaced with uncharged amino acids]", "values": [{"measurement": "Decrease in MNV-1 infectivity (log reduction)", "setting": "MNV-1 [1]", "result": 2.0, "unit": "log PFU/mL"}]}, {"substance": "KVFGRCELAAAMKRHGLDNYRGYSLGNWVCAAKFE [Lzm 1–35, synthetic peptide containing lysozyme residues 1–35]", "values": [{"measurement": "Decrease in MNV-1 infectivity (log reduction)", "setting": "MNV-1 [1]", "result": 1.7, "unit": "log PFU/mL"}]}, {"substance": "RCELAAAMKRHGLDNYRGYSLGNNVCAAKNESNNN [Lzm R2, variant of Lzm 5–39, aromatic amino acids replaced to reduce hydrophobicity]", "values": [{"measurement": "Decrease in MNV-1 infectivity (log reduction)", "setting": "MNV-1 [1]", "result": "lost"}]}, {"substance": "RCELAAAMKRHGLDNYRGYSLGNWVCAAKFESNFN [Lzm 5–39, synthetic peptide of lysozyme residues 5–39]", "values": [{"measurement": "Decrease in MNV-1 infectivity (log reduction)", "setting": "MNV-1 [1]", "result": 1.7, "unit": "log PFU/mL"}]}, {"substance": "DL: thermally denatured egg white lysozyme, prepared at pH 3.7–8.5", "values": [{"measurement": "Infectivity of MNV-1 after exposure, trend with pH", "setting": "MNV-1 [2]; 0.1% and 0.5% DL final, preparations at different pH, exposure 60 min, n = 3", "result": "tended to decrease as the pH of DL preparations increased"}, {"measurement": "Infectivity of MNV-1 after exposure, versus control", "setting": "MNV-1 [2]; 1.0% DL final, DL preparations at pH 4.5–8.5, exposure 1 min, control distilled water, Dunnett's test p < 0.01, n = 3", "result": "significantly lower than that of the control"}, {"measurement": "Decrease in MNV-1 infectivity (log reduction)", "setting": "MNV-1 [1]", "result": 0.9, "unit": "log PFU/mL"}, {"measurement": "Expression of the Ifnb gene", "setting": "interferon β (Ifnb) gene", "result": "did not increase"}, {"measurement": "Expression of the Il6 gene", "setting": "interleukin 6 (Il6) gene", "result": "did not increase"}, {"measurement": "Surface hydrophobicity (fluorescence intensity)", "setting": "[3]", "result": "significantly higher than that of native lysozyme at any pH"}, {"measurement": "Average expansion of MNV-1 particle size", "setting": "MNV-1 [4]", "result": 16.37, "unit": "nm"}]}, {"substance": "Lysozyme: egg white lysozyme, single-chain polypeptide consisting of 129 amino acids", "values": [{"measurement": "Isoelectric point", "setting": "[5]", "result": 11}]}]}
